What was measured:
[1] = test system: human diploid fibroblasts; assay: growth factor-stimulated signaling events in human diploid fibroblasts; type: cell-based
Method: Foreskin fibroblasts were isolated as described by Boyce and Ham (1983). Cells were cultured in Dulbecco's modified Eagle's medium containing 10% fetal bovine serum and antibiotics. The primary culture contained smaller and more closely packed cells during the early stage of the culture. Cells with less than 10 passage were often considered as presenescent cells. As the cells were passaged, they became larger and they have a slower growth rate at passage 10-20. Cells from over 27 passages were completely growth-arrested and developed characteristic appearance designated previously as replicative senescence (Yeo et al., 2000a and b). In order to confirm that cells were senescent, we either examined the activity of beta-galactosidase or stained with X-gal, a membrane permeable substrate of the enzyme, which produces a blue insoluble product inside of the cells. The number of cells stained with X-gal increased with age and most of cells from passage 27-28 were stained. Cultures of over 23-28 passages have also shown the cessation of cell growth and senescence-like morphological changes, but only 70-80% of cells were stained with X-gal. These were termed “near-senescent”. Although the near-senescent cultures were not completely homogeneous, we compared the changes in these cultures to those in presenescent cultures of passage 6-10. In order to determine the growth factor-stimulated signaling events, cells were grown for 1-2 days to 60-70% sub-confluency in the culture medium, and then serum-starved to become quiescent by incubating with serum free medium (SFM) for 2 days. The quiescent cells were treated with various agonists, as described in the figure legends. To label cells, radioactive chemicals were added during the incubation with SFM.
Primary human diploid fibroblasts, isolated from newborn foreskins, were used to study the mechanism of reduced response to growth factor stimulation with aging. These cells were maintained and passaged as described previously (Yeo et al., 2000a). […] Compared to their presenescent counterparts, the senescent and near-senescent cells were larger and grew to lower density, as has been observed in other cell systems. Here the present inventors report upon the differential changes in the signaling events evoked by platelet-derived growth factor (PDGF) and lysophosphatidic acid (LPA). PDGF elicits signaling events over a concentration range of 10-100 ng/ml, whereas LPA stimulates the hydrolysis of phospholipids, Ca^2+ mobilization, and actin polymerization over a concentration range of 0.1-10 μg/ml in human diploid fibroblasts. In order to compare their cellular responses, we treated presenescent and senescent (or near-senescent) cells with PDGF and LPA at a maximally responsive dose of 50 ng/ml and 1 μg/ml, respectively.

[2] = test system: human diploid fibroblasts; assay: measurement of cytosolic free [Ca2+]i by confocal microscopy (fluo-3-AM); type: cell-based; details: PDGF 50 ng/ml, LPA 1 μg/ml
Method: FIG. 1 represents differential changes in growth factor-stimulated calcium release in senescent fibroblasts. Presenescent (passage 7: A and C) and senescent (passage 27: B and D) fibroblasts were grown on coverslips, serum-starved, and incubated with 4 μM fluo-3-AM in serum-free medium for 40 min. The stained cells were treated with […] of platelet-derived growth factor (A and B) or 1 μg/ml of lysophosphatidic acid (C and D) via a micro-perfusion system for the real-time measurement of signaling molecules, and laser scanning confocal microscopy. The scanned images were analyzed for changes in intracellular Ca^2+ at the single cell level and results expressed as relative fluorescence intensity (RFI).
[Ca^2+]i was measured using a laser scanning confocal microscope, as described by Junn et al. (2000). Quiescent fibroblasts grown on glass cover slips in a 6-well plate were stained with 4 μM of fluo-3-acetoxymethyl ester (fluo-3-AM) in phenol red-free medium without serum for 40 min and washed three times with the serum-free medium. Stained cells on each cover slip were mounted on a perfusion chamber (MPS-1000, Seoul Engineering, Korea), placed under the confocal laser scanning microscope (Carl Zeiss LSM 410), and scanned every 5 sec with a 488 nm excitation argon laser and a 515 nm long pass emission filter. Growth factors were added to the cells using an automatic pumping system (self-designed). All scanned images were analyzed for [Ca ^2+]i changes at the single cell level using “Time Series Program” for a real-time measurement of relative fluorescence intensity (RFI) which is installed in the Carl Zeiss LSM 410 confocal system.

phospholipase D (PLD) = assay: phosphatidylbutanol formation as an indication of phospholipase D activity; type: cell-based, human; details: passage 24 near-senescent cells vs presenescent; 0.5% 1-butanol, 20 min
Method: Subconfluent presenescent (passage 8: Pa 8) and near-senescent (passage 24: Pa 24) cells were serum-starved and labeled with [^3H]myristic acid overnight. […] A representative experiment of three performed in duplicate is presented.
Quiescent cells were labeled overnight with [^3H]myristic acid (1 μCi/ml) and then washed with PBS. Phosphatidylbutanol formation was measured as described by Yeo et al. (1994). Cells were preincubated with 0.5% (v/v) 1-butanol for 15 min and then treated with agonists for 20 min in the presence of 0.5% 1-butanol. Total lipids were extracted and separated by thin layer chromatography. The band of phosphatidylbutanol was scraped off the plates and its radioactivity was counted in a liquid scintillation cocktail.

PKC = PKC activation (aggregation and translocation of PKC-α, confocal microscopy); type: cell-based, human; details: near-senescent cells (passage 29); 30 μg/ml LPA
Method: FIG. 16 represents PKC activation by LPA in presenescent and near-senescent human diploid fibroblasts. Subconfluent presenescent (passage 10, Pa 10) and near-senescent (passage 29, Pa 29) fibroblasts were serum-starved for 2 days and treated with 30 μg/ml LPA for the indicated times. PKC activation was indicated by aggregation and translocation of PKC proteins into the plasma membrane. PKC-α was detected under a confocal microscopy system with polyclonal anti-PKC-α antibodies and FITC-conjugated secondary antibodies.

[3] = test system: human diploid fibroblasts; assay: LPA-stimulated cell proliferation (viable cell count or MTT assay); type: cell-based; details: 4 days treatment
Excerpt: The optical density at 570 nm was plotted (A). The actual viable cell numbers were plotted (B).
In order to study the role of LPA-induced cAMP signaling, the inventors further compared LPA-stimulated cell proliferation between presenescent and near-senescent cells. After 4 days treatment with vehicle or LPA, the level of viable cells were counted or measured by MTT assay.

Phospholipase C (PLC) = details: near-senescent cells (passage 23) vs presenescent (passage 6); PDGF 50 ng/ml, LPA 1 μg/ml, 20 min, 20 mM LiCl

lysophosphatidic acid [LPA]
concentration range stimulating hydrolysis of phospholipids, Ca2+ mobilization and actin polymerization ([1]; human diploid fibroblasts): 0.1 to 10 µg/mL | maximally responsive dose ([1]; presenescent and senescent (or near-senescent) cells): 1 µg/mL | cytosolic Ca2+ levels ([2]; presenescent fibroblasts (passage 7)): rapid increase | Ca2+ response in senescent cells relative to presenescent ([2]; senescent cells (passage 27)): not significantly | reduction of PLD activity (phospholipase D (PLD)): ca. 20% | PKC activation (PKC): further increase in PKC activation | rate of LPA-stimulated proliferation ([3]; near-senescent cells): partially decreased | cell proliferation ([3]; presenescent cells): stimulated proliferation of presenescent cells dose-dependently | agonist-stimulated inositol phosphates (IPs) production (Phospholipase C (PLC)): enhanced
